# From US20130040893A1, “TREATMENT OF PROLIFERATIVE DISORDERS” (TETRALOGIC PHARMACEUTICALS CORPORATION, priority 2005, published 2013)
# Where two headings read alike, the source gives them in different places. Residues, ends and D or L forms follow the SMILES beside them.
# B1: TRAIL: tumor necrosis factor-related apoptosis-inducing ligand, member of the TNF superfamily (protein, UniProt P50591 1-281, looked up)
# Tumor necrosis factor ligand …: MAMMEVQGGPSLGQTCVLIVIFTVLLQSLCVAVTYVYFTNELKQMQDKYSKSGIACFLKEDDSYWDPNDEESMNSPCWQVKWQLRQLVRKMILRTSEETISTVQEKQQNISPLVRERGPQRVAAHITGTRGRSNTLSSPNSKNEKALGRKINSWESSRSGHSFLSNLHLRNGELVIHEKGFYYIYSQTYFRFQEEIKENTKNDKQMVQYIYKYTSYPDPILLMKSARNSCWSKDAEYGLYSIYQGGIFELKENDRIFVSVTNEHLIDMDHEASFFGAFLVG
# Key:
# BIR-3 domain of cIAP-1 [1] = molecular target: BIR-3 domain of cIAP-1 (Homo sapiens, UniProt Q13490); test: Fluorescence polarization binding assay, cIAP-1 BIR-3 domain
# Method: (§6) IC50 values (Table I) were determined from the plot using nonlinear least-squares analysis using GraphPad Prism.
# (§7) We have utilized the specificity of this IAP binding motif in a fluorescence polarization assay to measure the binding affinities for cIAP-1 Antagonists. The fluorescence polarization assay consists of FP peptide {Sri: What is “FP Peptide”?}, and the recombinant BIR3 domain of the XIAP protein. The FP peptide and mimics of cIAP-1 N-terminus compete for binding to the BIR3 protein. […] If a peptide, peptidomimetic, or other small molecule being tested is a competitor, then it succeeds in displacing the FP peptide, resulting in a low mP value. Molecules that compete with the FP peptide can be titrated and IC50 values determined (GraphPad Prism nonlinear regression curve-fitting program) by plotting mp value as the direct measure of fraction bound vs. the log of the compound concentration.
# SK-OV-3 cells = test: MTT cell growth assay in SK-OV-3 ovarian cancer cells; assay type: cell-based; settings: Homo sapiens
# Method: The MTT assay is an example of an assay that has been used for measuring cell growth as previously described (Hansen, M. B., Nielsen, S. E., and Berg, K. (1989) J. Immunol. Methods 119, 203-210) and incorporated herein by reference in its entirety. Briefly, SK-OV-3 cells were seeded in 96-well plates in McCoy's medium containing 10% fetal bovine serum […] (10,000 per well) and incubated overnight at 37° C.
# μM) and the plates were incubated at 37° C. for an additional 72 hrs. This incubation time was optimal for measuring inhibitory effects of different analogs. 50 microliters of 5 mg/mL MTT reagent to each well was added and the plates were incubated at 37° C. for 3 hours. At the end of incubation period, 50 microliters of DMSO was added to each well to dissolve cells and the optical density (OD) of the wells was measured with a microplate reader (Victor^2 1420, Wallac, Finland) at 535 nm. Cell survival (CS) was calculated by the following equation:
# CS=(OD treated well/mean OD control wells)×100%.
# The EC50 (Table 1), defined as the drug concentration that results in 50% CS, was derived by calculating the point where the dose-response curve crosses the 50% CS point using GraphPad Prism.
# BIR-3 domain of XIAP = BIR-3 domain of XIAP (Homo sapiens, UniProt P98170); test: Fluorescence polarization binding assay, XIAP BIR-3 domain
# Method: as §6, §7
# OVCAR-3 cell line = test: Synergistic toxicity with SN-38, MTT matrix; assay type: cell-based
# Text: MTT assays were setup by testing a matrix of concentrations of both drugs.
# BIR-3 domain of cIAP-1 [2] = test: Fluorescence polarization binding assay, cIAP-1 BIR-3 domain; settings: cIAP-1 relative to XIAP
# Method: as §6, §7
# cIAP-1 = molecular target: T1, cIAP-1 (Homo sapiens, UniProt Q13490); test: Western blot of cIAP-1 degradation in SKOV3 cells; assay type: cell-based; settings: SK-OV-3 cells, 20 hrs, absence of bortezomib
# T1 construct: endogenous in cells; host or cells: SKOV3 (SK-OV-3) cells
# Method: (§1) SKOV3 cells were passed into six 60×15 mm tissue culture dishes 2 days before experiment. Cells appeared to be ˜80% confluent at time of harvest. […] A 10-fold dilution of this solution into medium A gave the 100 nM working solution.
# (§2) Western blot analysis was carried out using standard technique. Briefly, cells were lysed using the MPER mammalian cell lysis solution (Bio-Rad #78503) to which 10 μl/mL of a 100× solution of HALT protease inhibitor cocktail (Bio-Rad #78410) has been added. To each dish of cells, 200 μl of the lysis solution plus protease inhibitors is added. The cells in each dish are scraped using a cell scraper and allowed to incubate with the reagent for 10 minutes. The lysates were transferred to pre-chilled microfuge tubes and spun for 20 minutes at 15,000×g at 4° C. The supernatant was transferred to a clean, chilled microfuge tube.
# (§3) Next, the total protein content of the lysates was determined using the BCA Protein Assay according to the manufacturer's protocol and using interpolation from a standard curve generated with BSA.
# (§4) The samples were normalized for protein content during preparation for gel electrophoresis. The samples were prepared using 2× Laemmli Sample buffer to which 200 mM DTT was added. […]
# XIAP = molecular target: T2, XIAP (Homo sapiens, UniProt P98170); test: Western blot of XIAP degradation in SKOV3 cells; assay type: cell-based; settings: SK-OV-3 cells, 20 hrs, absence of bortezomib
# T2 construct: SKOV3 cells were passed into six 60×15 mm tissue culture dishes; endogenous in cells; host or cells: SKOV3 (SK-OV-3) cells
# Method: as §1, §2, §3, §4
# SK-OV-3^R cells = test: TRAIL sensitivity MTT assay in IAP Antagonist-resistant SK-OV-3 cells; assay type: cell-based
# Method: (§5) Another unexpected observation we made was with respect to TRAIL sensitivity. IAP Antagonist-resistant SK-OV-3 cells (SK-OV-3^R) were generated by exposing the parental SK-OV-3 cells (SK-OV-3^S) to an IAP antagonist compound at a concentration that kills 95% of cells. Three days later, viable cells were transferred to a fresh flask and grown to confluency. Two weeks later, the cells were tested for IAP Antagonist sensitivity in an MTT assay as described above and as expected, found these cells to be resistant to IAP Antagonist cytotoxicity.
# SK-OV-3^S cells = test: TRAIL sensitivity MTT assay in parental SK-OV-3 cells; assay type: cell-based
# Method: as §5
# [3] = SK-OV-3 cells, 72 hrs, read-out: MTT EC50
# BIR-3 domain of XIAP, sequence (P98170 241-356 limits assumed): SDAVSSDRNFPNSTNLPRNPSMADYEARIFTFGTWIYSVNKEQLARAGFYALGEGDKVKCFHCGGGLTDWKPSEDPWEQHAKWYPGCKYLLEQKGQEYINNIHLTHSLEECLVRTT
# BIR-3 domain of cIAP-1 (Homo sapiens, UniProt Q13490), sequence (Q13490 266-352 limits assumed): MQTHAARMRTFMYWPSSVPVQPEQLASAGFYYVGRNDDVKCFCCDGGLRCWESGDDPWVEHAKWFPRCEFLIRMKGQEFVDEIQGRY
# T2 sequence (P98170 whole entry): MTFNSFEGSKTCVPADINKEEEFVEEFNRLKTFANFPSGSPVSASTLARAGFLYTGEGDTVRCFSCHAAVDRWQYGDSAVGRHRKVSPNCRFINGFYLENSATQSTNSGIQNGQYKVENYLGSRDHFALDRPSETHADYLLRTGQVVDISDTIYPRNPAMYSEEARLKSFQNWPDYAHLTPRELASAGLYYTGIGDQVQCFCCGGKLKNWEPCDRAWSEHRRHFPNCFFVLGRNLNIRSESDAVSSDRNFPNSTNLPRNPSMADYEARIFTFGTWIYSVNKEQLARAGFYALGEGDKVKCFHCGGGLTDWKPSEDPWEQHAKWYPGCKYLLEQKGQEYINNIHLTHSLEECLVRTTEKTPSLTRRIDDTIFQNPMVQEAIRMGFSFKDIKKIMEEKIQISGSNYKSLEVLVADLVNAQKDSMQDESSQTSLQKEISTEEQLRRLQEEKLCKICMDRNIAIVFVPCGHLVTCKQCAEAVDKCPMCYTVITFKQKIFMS
# T1 sequence (Q13490 whole entry): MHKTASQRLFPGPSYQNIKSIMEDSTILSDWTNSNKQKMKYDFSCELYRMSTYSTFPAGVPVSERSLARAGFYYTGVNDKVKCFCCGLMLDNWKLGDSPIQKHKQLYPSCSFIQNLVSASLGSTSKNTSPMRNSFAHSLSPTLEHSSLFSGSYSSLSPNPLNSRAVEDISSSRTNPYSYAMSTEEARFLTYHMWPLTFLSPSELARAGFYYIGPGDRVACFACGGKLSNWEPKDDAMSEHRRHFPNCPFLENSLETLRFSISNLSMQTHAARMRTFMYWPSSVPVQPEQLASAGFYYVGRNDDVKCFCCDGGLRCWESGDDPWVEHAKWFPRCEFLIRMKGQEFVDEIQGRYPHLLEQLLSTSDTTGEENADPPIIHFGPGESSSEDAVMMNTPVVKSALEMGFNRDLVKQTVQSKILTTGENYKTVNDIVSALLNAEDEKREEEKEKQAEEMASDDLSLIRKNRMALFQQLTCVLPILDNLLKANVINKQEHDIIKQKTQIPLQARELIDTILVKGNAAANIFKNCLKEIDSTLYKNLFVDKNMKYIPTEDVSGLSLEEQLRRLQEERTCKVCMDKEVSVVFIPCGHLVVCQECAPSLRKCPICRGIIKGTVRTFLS
Molecule,IC50 (BIR-3 domain of cIAP-1 [1]) [nM],EC50 (SK-OV-3 cells; [3]) [nM],IC50 (BIR-3 domain of XIAP) [nM],further results
"CC(C)[C@H](NC(=O)[C@H](C)N)C(=O)N1CCC[C@H]1C(=O)N[C@@H](Cc1ccccc1)C(=O)O [AVPF, reference compound] (H-AVPF-OH)",10 to 100,–,–,–
CCC(C)[C@H](NC(=O)[C@H](C)NC)C(=O)N1CCC[C@H]1Cc1c2n(c3ccc(F)cc13)CCn1c-2c(C[C@@H]2CCCN2C(=O)[C@@H](NC(=O)[C@H](C)NC)C(C)CC)c2cc(F)ccc21 (stereo partly drawn) [A],< 10,< 10,10 to 100,–
CN[C@@H](C)C(=O)N[C@H](C(=O)N1CCC[C@H]1Cc1c[nH]c2ccc(C)cc12)[C@@H](C)O [C],< 10,< 10,> 100,–
CC(C)[C@H](NC(=O)CN)C(=O)N1C[C@@H](Oc2ccccc2)C[C@H]1Cc1coc2ccccc12 [Compound I],< 10,< 10,> 100,"EC50 (SK-OV-3 cells; SK-OV-3, Table 10, read-out: MTT (SKOV-3)): < 10 nM; synergistic toxicity with SN-38 (synergistic volume) (OVCAR-3 cell line): comparable; IC50 (BIR-3 domain of XIAP; read-out: IC50 (XIAP), Table 10): > 100 nM; IC50 (BIR-3 domain of cIAP-1 [1]; read-out: IC50 (cIAP-1), Table 10): < 10 nM; binding to cIAP-1 more tightly than to XIAP (BIR-3 domain of cIAP-1 [2]): 117 fold"
CN[C@@H](C)C(=O)N[C@H](C(=O)N1C[C@@H](OC(C)=O)C[C@H]1Cc1c[nH]c2ccccc12)[C@@H](C)O [D],> 1000,–,> 1000,–
CN[C@@H](C)C(=O)N[C@H](C(=O)N1C[C@@H](OC(C)=O)C[C@H]1Cc1c[nH]c2ccccc12)C(C)(C)C [E],< 10,10 to 100,> 100,–
CN[C@@H](C)C(=O)N[C@H](C(=O)N1C[C@@H](OC(C)=O)C[C@H]1Cc1c[nH]c2ccccc12)C(C)C [F],< 10,10 to 100,10 to 100,–
CN[C@@H](C)C(=O)N[C@H](C(=O)N1CCC[C@H]1Cc1c[nH]c2ccc(C)cc12)C(C)C [G],< 10,10 to 100,10 to 100,–
CC(C)[C@H](NC(=O)[C@H](C)N)C(=O)N1CCC[C@H]1Cc1c(-c2ccc(-c3oc4ccccc4c3C[C@@H]3CCCN3C(=O)[C@@H](NC(=O)[C@H](C)N)C(C)C)cc2)[nH]c2ccccc12 [J],> 100,> 100,> 100,–
CN[C@@H](C)C(=O)N[C@H](C(=O)N1CCC[C@H]1Cc1cn(CCOCCn2cc(C[C@@H]3CCCN3C(=O)[C@@H](NC(=O)[C@H](C)NC)C3CCCCC3)c3ccccc32)c2ccccc12)C1CCCCC1 [K],10 to 100,10 to 100,> 100,–
CC(C)[C@@H](NC(=O)[C@@H](C)N)C(=O)N1CCC[C@@H]1Cc1c(-c2ccc(-c3oc4ccccc4c3C[C@H]3CCCN3C(=O)[C@H](NC(=O)[C@@H](C)N)C(C)C)cc2)[nH]c2ccccc12 [L],10 to 100,< 10,> 100,–
CN[C@@H](C)C(=O)N[C@H](C(=O)N1C[C@@H](O)C[C@H]1Cc1c(-c2ccc(-c3[nH]c4ccccc4c3C[C@@H]3C[C@H](O)CN3C(=O)[C@@H](NC(=O)[C@H](C)NC)C(C)(C)C)cc2)[nH]c2ccccc12)C(C)(C)C [M],10 to 100,10 to 100,10 to 100,–
CN[C@@H](C)C(=O)N[C@H](C(=O)N1CCC[C@H]1Cc1c(-c2ccc(-c3c(C[C@@H]4CCCN4C(=O)[C@@H](NC(=O)[C@H](C)NC)C(C)(C)C)c4ccc(F)cc4n3CCO)cc2)n(CCO)c2cc(F)ccc12)C(C)(C)C [N],10 to 100,< 10,10 to 100,–
CN[C@@H](C)C(=O)N[C@H](C(=O)N1CCC[C@H]1Cc1c(-c2ccc(-c3c(C[C@@H]4CCCN4C(=O)[C@@H](NC(=O)[C@H](C)NC)C(C)C)c4ccc(F)cc4n3CCOC(C)=O)cc2)n(CCOC(C)=O)c2cc(F)ccc12)C(C)C [O],> 1000,> 1000,> 1000,–
CN[C@@H](C)C(=O)N[C@H](C(=O)N1CCC[C@H]1Cc1c(-c2ccc(C(=O)OC)cc2)n(CCOCCOCCOC)c2cc(F)ccc12)C(C)(C)C [P],10 to 100,< 10,10 to 100,–
CN[C@@H](C)C(=O)N[C@H](C(=O)N1CCC[C@H]1Cc1c(-c2ccc(F)cc2)n(CCOCCOCCOC)c2cc(F)ccc12)C(C)(C)C [Q],10 to 100,< 10,10 to 100,cIAP-1 protein by western blot (cIAP-1): complete disappearance; XIAP protein by western blot (XIAP): complete disappearance
CN[C@@H](C)C(=O)N[C@H](C(=O)N1CCC[C@H]1Cc1c(-c2ccc(N3CCOCC3)cc2)n(CCOCCOCCOC)c2cc(F)ccc12)C(C)(C)C [R],10 to 100,10 to 100,10 to 100,–
B1,–,–,–,TRAIL sensitivity (SK-OV-3^R cells): sensitive to TRAIL; TRAIL sensitivity (SK-OV-3^S cells): resistant to TRAIL
